Measurements from patent US7189691B2, “Methods and compositions for treating leukemia” (The Administrators of the Tulane Educational Fund, priority 2004, dated 2007).

What was measured:
[1] = test system: B1 cells; assay: Annexin-V/PI binding assay (flow cytometry); assay type: cell-based; conditions: treated for 24 h
Method: To test the possibility that growth inhibition of t(4;11) leukemia cells exposed to PFWT is the result of apoptotic cell death, annexin-V labeling of the cell membrane of the leukemic cells examined in Example 5 was used to assess apoptosis as follows (Koopman, G., et al., Blood 1994 84: 1415–1420.). Annexin V binding assays were carried out using a Vibrant™ apoptosis kit (Molecular Probes). […] For annexin V-propidium iodide (PI) staining, cells were harvested, washed once with PBS and resuspended in 100 μl annexin binding buffer. 5 μl annexin V conjugated to Alexa Fluor 488 and 2 μl of 100 μg/ml PI were added to the cell suspension and incubated at room temperature for 15 minutes. The cells were then washed once in annexin binding buffer and resuspended in 400 μl annexin binding buffer. These samples were then analyzed by flow cytometry using Coulter benchtop flow cytometer. The cells were excited by a 488 nm wavelength laser beam and the emission was measured using a 530 nm filter for annexin V and a 575 nm filter for PI.

[2] = test system: Raji lymphoma cell line; assay: Proliferation test; assay type: cell-based; conditions: data not shown
[3] = test system: NIH 373 cell line; assay: Proliferation test; assay type: cell-based; conditions: data not shown
[4] = target: T1, mBCoR binding to AF9 (Homo sapiens, UniProt P42568); assay: GST pull-down assay, GST-mBCoR(925-1759) and biotinylated AF9; design: species or system murine; conditions: 25 μg/ml
T1 construct: made in house; host or cells: GST-mBCoR from E. coli; AF9 by coupled in vitro transcription/translation (Promega)
T1 sequence (P42568 211-568): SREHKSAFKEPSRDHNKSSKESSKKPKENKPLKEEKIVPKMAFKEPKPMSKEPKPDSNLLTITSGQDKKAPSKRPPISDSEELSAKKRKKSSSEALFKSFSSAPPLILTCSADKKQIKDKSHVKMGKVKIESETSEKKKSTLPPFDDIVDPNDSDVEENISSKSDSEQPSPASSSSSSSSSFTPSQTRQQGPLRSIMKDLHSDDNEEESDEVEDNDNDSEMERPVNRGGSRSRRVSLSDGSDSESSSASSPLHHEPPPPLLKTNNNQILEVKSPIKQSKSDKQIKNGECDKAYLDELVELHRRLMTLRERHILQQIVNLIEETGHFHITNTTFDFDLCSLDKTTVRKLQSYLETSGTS
Method: (§1) To determine if the synthetic peptide could disrupt the AF4-AF9 interaction in vitro, and to determine if the peptide disrupted other binding events with AF9, the following assay was performed. In additional to AF4, the carboxy-terminus of AF9 binds at least two other proteins, the Polycomb protein MPc3 and mBCoR, the mouse homolog of the human BCL-6 corepressor protein (Srinivasan 2003 and Hemenway 2001, both cited above). Using a yeast three hybrid assay similar to that described in Example 1, it was previously shown that mBCoR and FMR2 (an AF4 homolog) can simultaneously bind AF9. […] The sequences of human AF4 and AF9 and murine MPc3 and BCoR can be found in the NCBI database under Accession Nos. P51825, P42568, Q9QXV1, and AAN85318, respectively, incorporated by reference herein.
(§2) Recombinant proteins consisting of glutathione-S-transferase (GST) fused to either (a) amino acids 749–775 of human AF4 SEQ ID NO: 107, (b) amino acids 202–362 of MPc3 SEQ ID NO: 108 or (c) amino acids 925–1759 of mBCoR SEQ ID NO: 109 were isolated from E. coli. These fusion proteins were immobilized on 50 μl glutathione agarose matrix. […]
(§3) After extensive washing with TBST, proteins were resolved by SDS-PAGE and transferred to nitrocellulose. […] Alkaline phosphatase activity was measured by determining the optical density of the samples at 405 nm with a plate spectrophotometer. […]

[5] = target: T2, MPc3 binding to AF9 (Homo sapiens, UniProt P42568); assay: GST pull-down assay, GST-MPc3(202-362) and biotinylated AF9; design: species or system murine; conditions: 25 μg/ml
T2 construct: made in house; host or cells: GST-MPc3 from E. coli; AF9 by coupled in vitro transcription/translation (Promega)
T2 sequence (P42568 211-568): T1 sequence (P42568 211-568)
Method: as §1, §2, §3

[6] = test system: RS4;11 leukemia cell line; assay: MTT viability assay and growth curve (Trypan Blue exclusion); assay type: cell-based; conditions: 100 μg/ml, 72 h
Method: All cell lines were maintained in RPMI 1640+10% FCS. 100 μl aliquots of cell suspension (5×10^5 cells/ml) were cultured in flat-bottomed 96 well plates in the presence of different concentrations of peptides. After 72 h incubation at 37° C. in humidified air containing 5% CO2, viable cell number was determined by MTT assay as follows: 10 μl of 3-[4,5-dimethylthiazol-2-yl]-2,5-diphenyl tetrazolium bromide (MTT) (5 mg/ml concentration) (Sigma) was added to each well and incubated further for 6 h. Formazan crystals that are formed during incubation were dissolved in 100 μl of acidified isopropanol. The optical density at 550 nm (which is linearly related to the number of viable cells) was measured using a plate spectrophotometer. Growth characteristics of the leukemia cell lines were also determined for cells by Trypan Blue exclusion.

CC[C@H](C)[C@H](NC(=O)[C@H](CCCCN)NC(=O)[C@@H](NC(=O)[C@H](Cc1c[nH]c2ccccc12)NC(=O)[C@H](CC(C)C)NC(=O)[C@H](CCCCN)NC(=O)[C@H](CCCCN)NC(=O)[C@H](Cc1c[nH]c2ccccc12)NC(=O)[C@H](CCCCN)NC(=O)[C@H](CCSC)NC(=O)[C@H](CCCNC(=N)N)NC(=O)[C@H](CCCNC(=N)N)NC(=O)[C@H](CC(N)=O)NC(=O)[C@H](CCC(N)=O)NC(=O)[C@H](Cc1ccccc1)NC(=O)[C@H](Cc1c[nH]c2ccccc12)NC(=O)[C@H](CCCCN)NC(=O)[C@@H](NC(=O)[C@H](CCC(N)=O)NC(=O)[C@@H](N)CCCNC(=N)N)[C@@H](C)CC)C(C)C)C(=O)N[C@@H](CC(=O)O)C(=O)N[C@@H](CC(C)C)C(=O)N[C@@H](CC(=O)O)C(=O)N[C@@H](CC(C)C)C(=O)N[C@@H](CC(C)C)C(=O)N[C@@H](CO)C(=O)N[C@@H](CCCNC(=N)N)C(=O)N[C@H](C(=O)N1CCC[C@H]1C(=O)O)C(C)C [PFWT]
cells in early stages of apoptosis (Annexin-V binding, exclusion of PI) [1]: 45% | cells in later stages of apoptosis (positive for Annexin-V and PI) [1]: 35% | proliferation [2]: not affect the proliferation | proliferation [3]: not affect the proliferation | displacement of mBCoR from AF9 [4]: not displaced | displacement of MPc3 from AF9 [5]: not displaced | proliferation / viability [6]: completely inhibits proliferation
